Measured values reported in patent US20210259949A1, “USE OF A BIXA ORELLANA EXTRACT” (BASF Beauty Care Solutions France SAS, priority 2018, published 2021).

System: IGFBP3 protein
Assay: Quantification of IGFBP3 protein by ELISA in supernatant of normal human keratinocytes
Format: cell-based
Conditions: IGF-1 at 100 ng/ml, 24 h, related to non-treated cells (100), NS
Procedure: Normal human keratinocytes were cultured up to 70% confluence, then treated for 24 h with IGF-1 at 100 ng/ml or the Bixa orellana extract obtained according to Example 1a) before mixing with maltodextrin and spray-drying at 0.1% or 0.05% (w/w in the total medium) for 24 h. The cells are lysed for assaying the DNA, and the supernatant is used for the quantification of the IGFBP3 protein by ELISA according to the protocol of the supplier of the ELISA kit (LSBio Human IGFBP3 ELISA Kit ref LS-F24538 lot 103180).
The results are related to non-treated cells. A statistical t-test test is carried out, and the means are compared.

IGF-1: growth factor insulin-like growth factor type 1 (IGF1), used at 100 ng/ml
IGFBP3 protein, Mean: 128.195
